Measured values as given in paper PMC8940841, “A metabolically stable PET tracer for imaging synaptic vesicle protein 2A: synthesis and preclinical characterization of [^18F]SDM-16” (European Journal of Nuclear Medicine and Molecular Imaging, 2021).
Where two headings read alike, the source gives them in different places.

What was measured:
human SV2A [1] = target: T1, human SV2A (Homo sapiens, UniProt Q7L0J3); assay: biochemical
Procedure: Competition binding assays were performed twice independently using separate assay materials, with 4 technical replicates from each independent assay. […] Duplicate samples of human frontal cortex gray matter were homogenized in PBS buffer (10 mg/mL) for storage at − 80 °C and were diluted to a stock concentration of 4 mg/mL in PBS on the day of the assays. […] Working stocks of brain homogenate (100 µL; final concentration of 2 mg/mL), blocking ligands (20 µL), and radioligand (80 µL; final concentration 2.5 nM) were combined in quadruplicate wells of 96-well plates, sealed, and incubated at room temperature for 90 min on an orbital shaker set to 250 RPM. Reaction plates were filtered, rapidly washed with cold PBS, and dried. Forty microliters of Microscint-20 scintillation cocktail (Perkin-Elmer) was added to each well, and the plate was counted using a Microbeta2 plate reader (Perkin-Elmer). GraphPad Prism was used for curve fitting using the one-site Ki model.

human SV2A [2] = target: T1, human SV2A; parameters: Duplicate samples of human frontal cortex gray matter were homogenized in PBS buffer; from tissue; host or cells: human frontal cortex gray matter homogenate; settings: other SV2A ligands, cited from earlier work
[3] = Adverse event observation during PET imaging; type: in vivo, rhesus monkeys; settings: tracer at microdose 0.646–0.926 µg; LEV i.v. 30 mg/kg
Procedure: (§1) Four monkeys were studied.
Adverse event was also not observed following LEV (i.v., 30 mg/kg) administration, including the displacement and blocking scan.

SV2A = SV2A (Macaca mulatta, UniProt H9EQH8); assay: LEV blocking and displacement PET scans, Lassen plot; type: in vivo, rhesus monkeys (Macaca mulatta); parameters: from tissue; host or cells: brain of living rhesus monkeys (in vivo PET); settings: LEV 30 mg/kg i.v., Lassen plot with [^18F]SDM-16
Sequence of SV2A (H9EQH8 1-742): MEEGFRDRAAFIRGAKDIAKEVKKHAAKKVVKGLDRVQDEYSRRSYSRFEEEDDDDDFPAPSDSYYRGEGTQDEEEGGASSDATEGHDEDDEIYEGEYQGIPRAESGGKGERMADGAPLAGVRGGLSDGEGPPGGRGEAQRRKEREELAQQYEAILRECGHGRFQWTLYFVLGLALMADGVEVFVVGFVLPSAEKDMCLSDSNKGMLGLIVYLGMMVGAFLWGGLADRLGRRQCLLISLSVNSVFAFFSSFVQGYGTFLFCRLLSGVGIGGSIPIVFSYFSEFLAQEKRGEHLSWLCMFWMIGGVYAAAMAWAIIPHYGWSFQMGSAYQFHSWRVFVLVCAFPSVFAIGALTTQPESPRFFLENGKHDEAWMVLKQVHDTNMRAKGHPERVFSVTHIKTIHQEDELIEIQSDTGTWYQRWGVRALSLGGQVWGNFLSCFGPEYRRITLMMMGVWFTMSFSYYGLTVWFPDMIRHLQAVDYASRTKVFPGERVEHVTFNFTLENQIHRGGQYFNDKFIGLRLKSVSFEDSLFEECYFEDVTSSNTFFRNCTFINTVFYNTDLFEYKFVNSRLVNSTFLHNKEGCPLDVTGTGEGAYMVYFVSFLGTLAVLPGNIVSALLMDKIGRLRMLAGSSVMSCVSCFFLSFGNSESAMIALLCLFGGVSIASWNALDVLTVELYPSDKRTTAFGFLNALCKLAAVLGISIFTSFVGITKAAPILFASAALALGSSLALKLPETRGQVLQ
Source text: as §1
To examine the in vivo binding specificity, SV2A occupancy, and the extent of nonspecific binding in the monkey brain, we performed the Lassen plot analysis using data from the two baseline scans and one blocking scan in the same monkey.

T1 sequence (Q7L0J3 whole entry): as the sequence (H9EQH8 1-742) above, with S64G, V572I counted along it

Row | SMILES | Ki (human SV2A [1]) | Ki (human SV2A [2]; read-out: Ki) | adverse events [3] | SV2A occupancy (SV2A) | Ki (human SV2A [2])
1 | Cc1nccn1CN1CC(c2cc(F)cc(F)c2)CC1=O (racemic) [Rac SDM-16, 4-(3,5-difluorophenyl)-1-((2-methyl-1H-imidazol-1-yl)methyl)pyrrolidin-2-one] | 3.7 nM |  |  |  | 
2 | Cc1cnccc1CN1C[C@@H](c2cc(F)c(F)c(F)c2)CC1=O [UCB-J] |  | 2.6 nM |  |  | 
3 | CC[C@@H](C(N)=O)N1CCCC1=O [Levetiracetam, levetiracetam, reference compound] |  |  | not observed | 79% | 2100 nM
4 | Cc1nccn1CN1C[C@@H](c2cc(F)cc(F)c2)CC1=O [SDM-16] | 0.9 nM |  | no adverse events were observed |  | 
